Entries after “also recorded” stand apart in the source; their conditions may differ. Read-outs that look alike come from different tables or passages of the source.

One series addresses T1, UT-B (Rattus norvegicus, UniProt P97689).
T1 construct: endogenous in cells; host or cells: erythrocytes from male SD rats
T1 sequence (P97689 1-384): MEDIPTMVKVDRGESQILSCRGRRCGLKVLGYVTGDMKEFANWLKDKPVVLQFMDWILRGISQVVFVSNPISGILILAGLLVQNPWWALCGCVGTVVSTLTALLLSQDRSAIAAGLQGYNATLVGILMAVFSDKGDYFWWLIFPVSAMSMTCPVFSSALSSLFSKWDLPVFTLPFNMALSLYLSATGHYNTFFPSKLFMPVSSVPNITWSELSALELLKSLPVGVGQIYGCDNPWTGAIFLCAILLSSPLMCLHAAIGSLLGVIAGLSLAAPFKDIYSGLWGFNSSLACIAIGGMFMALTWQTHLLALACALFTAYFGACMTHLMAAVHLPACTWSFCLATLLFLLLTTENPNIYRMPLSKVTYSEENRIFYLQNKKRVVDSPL
Nature of the series: Erythrocyte lysis assay for UT-B inhibition, rat erythrocytes. The class given is cell-based. The method, then: The erythrocyte lysis assay was modified from a method described previously. Erythrocytes obtained from veins were diluted to a hematocrit value of 2% in hyperosmolar PBS containing 1.25 mol/L urea and 5 mmol/L glucose and incubated at r.t. for 2 h. Then, 99 μL erythrocyte suspension from a reservoir was added to each well of a 96-well round-bottom microplate, then 1 μL of the testing compound (500, 125, 31.25, 7.81, 1.95, 0.488, 0.122, 0.031, 0.0076 μmol/L dissolved in DMSO) was added to erythrocyte suspension and shook it up with microoscillator for 1 min. Following 5 min incubation, 20 μL erythrocyte suspension was transferred into 96-well black microplates preloaded with 180 μL isotonic PBS (10 mM, urea-free). Erythrocyte lysis was monitored at 710 nm optical density (OD710) for 6 min, with lysis rates calculated using control values from the same plate as Equation (1):Lysis (%) = 100 × (Aneg − Atest)/(Aneg − Apos)(1) where Atest is the absorbance value from the test well, Aneg is from a negative no-lysis control well, and Apos is from a positive full-lysis control.

A short description of a further series: Blood stability, rat. The series is classed as in vitro ADME. The following applies: plasma, n=3. On the procedure:
(§1) Plasma from mice, rats, rabbits, and humans was obtained from blood after centrifugation at 3000 r/min for 10 min. Simulated gastric fluid (SGF, pH = 1, containing pepsin) and simulated intestinal fluid (SIF, pH = 6.8, containing trypsin) were configured previously in the experiments. SD rats and mice were collected, and after removing the mucus layer from the small intestine and colon, 20 times the volume of liquid bacterial culture medium was added. An intestinal microbiota suspension was obtained after anaerobic cultivation on a shaking table at 37 °C for 12 h. In the aforementioned systems, E3 was added at a final concentration of 1 μmol/L at 37 °C for different incubation times (0, 10, 20, 30, 60, 120, and 240 min). In liver metabolic stability assays, E3 was incubated with liver microsomes or liver homogenate from mice or rats for 60 min at 37 °C. The stop solution, 5 ng/mL tolbutamide (internal standard, IS) in acetonitrile, was added to stop the metabolic process. Post-centrifugation (18,000× g, 10 min, 4 °C), supernatants were subjected to liquid chromatography–tandem mass spectrometry (LC–MS/MS). Analyte-to-IS peak area ratios quantified residual percentages via Equation (2):Remaining% = (E3peak area/ISpeak area at different time)/(E3peak area/ISpeak area at 0 min) × 100%.(2)

The nature of series [1]: Stability in simulated gastric fluid (SGF) and simulated intestinal fluid (SIF). The class given is in vitro ADME. The following applies: 1 μmol/L; 37 °C; after 4 h. On the procedure:
as §1

A short description of series [2]: Intestinal microbiota stability, mouse. The series is classed as in vitro ADME. The method, then:
as §1

A short description of series [3]: Tissue distribution study in rats. The class given is in vivo, rat. On the procedure:
Male SD rats were randomly divided into four groups and received a single oral dose of E3 at 4 mg/kg. Blood and tissue samples (i.e., heart, liver, kidney, spleen, lung, brain, testis, skin, muscle, leg bone, stomach, small intestine, and colon) were collected at 0.5 h, 2 h, 6 h, and 24 h after dosing. Tissues were perfused with cold saline, blotted, weighed, and homogenized (10 vol/wt ice-cold H2O; T10 homogenizer, IKA, Staufen, Germany). The rats’ right shin bone was decalcified in methanol (4 °C, 12 h). Processed samples (−80 °C storage) underwent LC-MS/MS analysis as described.
The analyte E3 and IS were dissolved in DMSO to generate the stock solutions. The working calibration of E3 was gradient-diluted with MeOH/H2O (1:1, v/v). Three microliters of working solutions were spiked with 27 μL of the blank rat plasma to establish the calibration standards. The final concentrations of the standard samples were 1, 2, 5, 10, 50, 250, 500, and 1000 ng/mL. Quality control samples (3/100/800 ng/mL) were prepared using identical protein precipitation protocols. Briefly, 30 μL calibrators and biological matrices were mixed with 450 μL stop solution, vortexed (5 min), and centrifuged (18,000× g, 10 min, 4 °C). Processed supernatants (2 μL injection volume) were subjected to LC-MS/MS analysis.
The analysis was conducted by an Xevo TQ-S Cronos Triple Quadrupole Mass Spectrometer coupled with an ACQUITY UPLC (Waters Corp, Milford, MA, USA). The chromatographic separation was conducted in an ACQUITY UPLC BEH C18 1.7 µm column (Waters, Milford, MA, USA) at 40 °C with a flow rate of 0.4 mL/min. The mobile phases were 0.1% (v/v) formic acid in water (A) and pure ACN (B). […] An electrospray ionization (ESI) source with multiple–reaction monitoring (MRM) in positive–ion mode was employed to quantify the analytes with the transitions of m/z 385.11 > 244.19 and m/z 271.136 > 91.01 for E3 and IS, respectively. The optimized cone voltage is 10 V and 24 V for E3 and IS, respectively. The collision energy is 12 V and 32 V for E3 and IS, respectively. MassLynx v4.2 (Waters Corp, Milford, MA, USA) was used for data acquisition and analysis.

Take `CC(=O)c1ccc(C(=O)Nc2cccc(NS(=O)(=O)c3ccccc3)c2)o1` [Compound E3, 5-acetyl-N-(3-(phenylsulfonamido)phenyl)furan-2-carboxamide]: at UT-B (erythrocyte lysis assay), the “maximum inhibition rate, rat cells” value is “approximately 100%”. In addition, the IC50 turned out to be 0.01 µM on UT-B (erythrocyte lysis model, rat, n = 3, means, read-out: IC50 (μM) Rat) and 0.0076 µM at UT-B (red blood cell lysis assay, read-out: IC50 for UT-B-promoted urea transport, rats). This molecule also displayed a fraction remaining at 1 μmol/L in “Blood stability, rat” of 46.8%. Moreover, the “E3 remaining in SGF (pH 1.0) and SIF (pH 6.8)” value in series [1] is recorded as “More than 90%”. Also, the fraction remaining at 4 h, 1 μmol/L in series [2] (colon microbiota suspension, n=3, read-out: Mouse colon microbiota (remaining %)) came to 89.3%; in series [2] (small intestine microbiota suspension, n=3, read-out: Mouse small intestine microbiota (remaining %)) it was 87.3%. For the same molecule, the “permeability to the blood–brain barrier (BBB) and blood–testis barrier (BTB)” value in series [3] (inferred from tissue distribution) is “lower permeability; also recorded: low permeability”. Moreover, the “concentration in kidney relative to other tissues” value in series [3] (single oral 4 mg/kg) is “highest concentration”. In addition, the “distribution in the brain, testis” value in series [3] (single oral 4 mg/kg) is “relatively low distribution”. Further, the “time of peak drug concentration in most tissues” value in series [3] (single oral 4 mg/kg, post-administration) is reported as 2 h.

By IC50 is commonly meant the concentration that gives 50% inhibition. What is called amount remaining is the share of the starting amount still present when the sample was taken.

Source of the values: publication PMC12024912, “Druggability Studies of Benzene Sulfonamide Substituted Diarylamide (E3) as a Novel Diuretic” (Biomedicines, 2025).
